Legend:
[1] = Cell Titer-fluor cell activity assay in HCV-1b replicon cells (CC50); format: cell-based
Protocol: (§1) The EC50 and CC50 values of anti-HCV compounds were determined by HCV genotype 1a (HCV-1a) and 1B (HCV-1b) stable transfer replication (replicon) cells. The source of genotype 1a replicon is H77 clones containing K1691R, K2040R and S2204I adaptive mutations. The source of genotype 1b replicon is Con1 clones containing E1202G, T1280I and K1846T adaptive mutations.
(§2) HCV Replicon Cell Lines: HCV-1a and HCV-1b Cells
(§3) The compound powder was dissolved in 100% DMSO. Then the compound was diluted 5 times with 6 points, and added into the cell plate with Echo liquid handler. Ensure the final concentration of DMSO was 0.5%. Each compound was tested in double holes. Maximum initial concentration was 100, 10 or 1 nM, 5 times dilution, 6 points.
(§4) b) Cell Culture (HCV-1a or HCV-1b Replicon Cell):
(§5) 1) absorbing the culture supernatant of the cell culture and washing the cells with 10 mL PBS.
(§6) 2) adding preheated pancreatin to the washed cell culture flasks, rotating culture bottle to make the bottom of the culture bottle uniformly covered by pancreatin, then placed into 37° C., 5% CO2 incubator to digest.
(§7) 3) suspending cells in each T150 culture flask with 10-15 mL culture medium, absorbing 0.1 mL liquid and diluting 2 times by trypan blue solution as counted.
(§8) 4) diluting cells to 8×10^4/mL with the culture medium, adding the diluted cells into the compound-containing 96-well plate (Greiner, Cat.#655090) (100 μL/well, 8000 cells/well) with automatic liquid separator (Thermo Scientific). Then place into a 37° C., 5% CO2 incubator for 3 days. Cell control well: no compound, only containing 0.5% DMSO.
5) adding chemiluminescent substrate Cell Titer-fluor to the cell well, after incubation for 30 minutes, detecting the signal by chemiluminescence detection system Envison (Ex at 405 nm and read at 515 nm). The effect of the compounds on the activity of HCV replicon cells was analyzed according to the luminescence data, which was used to calculate the CC50 values.
(§9) The EC50 or CC50 values were obtained by nonlinear fitting analysis on inhibition percentage (inh %) data with GraphPad Prism software.

[2] = tested on: HCV genotype 1b (HCV-1b) replicon cells; test: HCV genotype 1b replicon luciferase assay (EC50); format: cell-based, hepatitis C virus genotype 1b (Con1 clone); settings: Hepatitis C virus, 72 h, 3 days, luciferase (Bright-Glo)
Protocol: as §1
(§10) HCV 1a (HCV-1a) and 1b (HCV-1b) gene subtype replicon system contains the related HCV gene subtype non structural protein gene, G418 resistance gene NEO and luciferase gene, which results in that HCV related protein and luciferase can be stably expressed in cells. By detecting the level of expression of luciferase gene, the level of HCV replication can be determined. Therefore, the system is used as a model for screening the activity of anti-HCV compound in vitro.
as §2, §3, §4, §5, §6, §7, §8
(§11) 6) then adding luciferase luminescence substrate Bright-Glo, after incubation for 5 minutes, detecting the luciferase activity by chemical luminescence detection system Envison (wavelength>700 nm); analyzing the anti-HCV inhibitory activity of the compounds according to luciferase data, which was used to calculate EC50 values.
as §9

[3] = tested on: HCV genotype 1a (HCV-1a) replicon cells; test: HCV genotype 1a replicon luciferase assay (EC50); format: cell-based, hepatitis C virus genotype 1a (H77 clone); settings: Hepatitis C virus, 72 h, 3 days, luciferase (Bright-Glo)
Protocol: as §1, §10, §2, §3, §4, §5, §6, §7, §8, §11, §9

Structure (SMILES): COC(=O)N[C@H](C(=O)N1CCC[C@H]1c1ncc(-c2ccc(-c3ccc(-c4cnc(C5=C(C(=O)N(NC(=O)OC)C(C)C)CCC5)[nH]4)cc3)cc2)[nH]1)C(C)C [AA_007]
- CC50 at 3 days [1]: > 100 nM
- EC50 [2]: 1 to 10 nM

Structure (SMILES): COC(=O)N[C@H](C(=O)N1CCC[C@H]1c1ncc(-c2ccc(-c3ccc(-c4cnc(C5CCCC5C(=O)N(NC(=O)OC)C(C)C)[nH]4)cc3)cc2)[nH]1)C(C)C (stereo partly drawn) [AA_008]
- CC50 at 3 days [1]: > 100 nM
- EC50 [2]: 1 to 10 nM

Structure (SMILES): COC(=O)N[C@H](C(=O)N1CCC[C@H]1c1ncc(-c2ccc(-c3ccc(-c4cnc(C5=C(C(=O)N(NC(=O)OC)C(C)C)CCCC5)[nH]4)cc3)cc2)[nH]1)C(C)C [AA_014]
- CC50 at 3 days [1]: > 100 nM
- EC50 [2]: 1 to 10 nM

Structure (SMILES): COC(=O)N[C@H](C(=O)N1CCC[C@H]1c1ncc(-c2ccc(-c3ccc(-c4cnc(C5CCC[C@H]5C(=O)NC(C)C)[nH]4)cc3)cc2)[nH]1)C(C)C (stereo partly drawn) [AA_028]
- CC50 at 3 days [1]: > 100 nM
- EC50 [2]: 1 to 10 nM

Structure (SMILES): COC(=O)N[C@H](C(=O)N1CCC[C@H]1c1ncc(-c2ccc(-c3ccc4cc(-c5cnc(C6CCCC[C@H]6C(=O)N(NC(=O)OC)C(C)C)[nH]5)ccc4c3)cc2)[nH]1)C(C)C (stereo partly drawn) [AA_071]
- CC50 at 3 days [1]: > 10 nM
- EC50 [2]: 1 to 10 nM

Structure (SMILES): COC(=O)N[C@H](C(=O)N1[C@H](c2ncc(-c3ccc(-c4ccc5cc(-c6cnc(C7CCCC[C@H]7C(=O)N(NC(=O)OC)C(C)C)[nH]6)ccc5c4)cc3)[nH]2)COC1(C)C)C(C)C (stereo partly drawn) [AA_072]
- CC50 at 3 days [1]: > 10 nM
- EC50 [2]: 10 to 100 nM

Structure (SMILES): COC(=O)N[C@H](C(=O)N1CC2(C[C@H]1c1ncc(-c3ccc(-c4ccc5cc(-c6cnc(C7CCCC[C@H]7C(=O)N(NC(=O)OC)C(C)C)[nH]6)ccc5c4)cc3)[nH]1)OCCO2)C(C)C (stereo partly drawn) [AA_073]
- CC50 at 3 days [1]: > 10 nM
- EC50 [2]: 1 to 10 nM

Structure (SMILES): COC(=O)NN(C(=O)[C@H]1CCCCC1c1ncc(-c2ccc(-c3ccc4cc(-c5cnc(C6CCCC[C@H]6C(=O)N(NC(=O)OC)C(C)C)[nH]5)ccc4c3)cc2)[nH]1)C(C)C (stereo partly drawn) [AA_074]
- CC50 at 3 days [1]: > 10 nM
- EC50 [2]: 10 to 100 nM

Structure (SMILES): COC(=O)N[C@H](C(=O)N1CCC[C@H]1c1ncc(-c2ccc(-c3ccc(-c4cnc([C@@H]5[C@H]6CC[C@H](C6)[C@H]5C(=O)N[C@H](C)c5cccnc5F)[nH]4)cc3)cc2)[nH]1)C(C)C [AA_283_ENDOA2_A]
- EC50 [3]: 1 to 10 nM
- EC50 [2]: 0.001 to 0.1 nM

Structure (SMILES): COC(=O)N[C@H](C(=O)N1CCC[C@H]1c1ncc(-c2ccc(-c3ccc(-c4cnc([C@@H]5[C@H]6CC[C@H](C6)[C@H]5C(=O)N[C@@H](C)c5cccnc5F)[nH]4)cc3)cc2)[nH]1)C(C)C [AA_283_ENDOA2_B]
- EC50 [3]: 0.001 to 0.1 nM
- EC50 [2]: 0.001 to 0.1 nM

Structure (SMILES): COC(=O)N[C@H](C(=O)N1CCC[C@H]1c1ncc(-c2ccc(-c3ccc(-c4cnc([C@@H]5[C@H]6CC[C@H](C6)[C@H]5C(N)=O)[nH]4)cc3)cc2)[nH]1)C(C)C [AA_284_ENDOA2]
- EC50 [3]: 10 to 100 nM
- EC50 [2]: 0.001 to 0.1 nM

Structure (SMILES): COC(=O)N[C@H](C(=O)N1CCC[C@H]1c1ncc(-c2ccc(-c3ccc(-c4cnc([C@@H]5[C@H]6CC[C@H](C6)[C@H]5C(=O)N(Cc5cccnc5)C(C)C)[nH]4)cc3)cc2)[nH]1)C(C)C [AA_285_ENDOA2]
- EC50 [3]: 1 to 10 nM
- EC50 [2]: 0.001 to 0.1 nM

Structure (SMILES): COC(=O)N[C@H](C(=O)N[C@H]1C2CCC(C2)C1c1ncc(-c2ccc(-c3ccc(-c4cnc([C@@H]5CCCN5C(=O)[C@@H](NC(=O)OC)C(C)C)[nH]4)cc3)cc2)[nH]1)C(C)C (stereo partly drawn) [AA_286]
- EC50 [3]: 10 to 100 nM
- EC50 [2]: 0.001 to 0.1 nM

Structure (SMILES): COC(=O)N[C@H](C(=O)N1CCC[C@H]1c1ncc(-c2ccc(-c3ccc(-c4cnc([C@@H]5[C@H]6CC[C@H](C6)[C@H]5C(=O)NCc5cncc(F)c5)[nH]4)cc3)cc2)[nH]1)C(C)C [AA_287_ENDOA2]
- EC50 [3]: 0.101 to 1 nM
- EC50 [2]: 0.001 to 0.1 nM

Structure (SMILES): COC(=O)N[C@H](C(=O)N1CCC[C@H]1c1ncc(-c2ccc(-c3ccc(-c4cnc([C@@H]5[C@H]6CC[C@H](C6)[C@H]5C(=O)NCc5nccn5C)[nH]4)cc3)cc2)[nH]1)C(C)C [AA_288_ENDOA2]
- EC50 [3]: 1 to 10 nM
- EC50 [2]: 0.001 to 0.1 nM
